What was measured:
[1] = tested on: BxPC3 cells; test: TSA clonogenic assay (TSA + gemcitabine); type: cell-based; settings: Homo sapiens
Procedure: (§1) Cell viability assays. For clonogenic assays, 1000 cells per well were seeded into 6 well plates on day 0. Cells were treated with gemcitabine at various doses on day 1 for 24 hours, Gemcitabine was washed out on day 2, and cells were allowed to grow for a subsequent 10 days before being fixed (10% methanol+10% acetic acid) and stained with crystal violet (0.4% in 20% ethanol) for colony counting and quantitation. For Rucaparib clonogenic assays, the drug was added at various doses 24 hours after cell plating, and cells were allowed to grow for a subsequent 10 days in the presence of Rucaparib. For TSA clonogenic assays, the drug was added for 4 hours prior to addition of gemcitabine or vehicle for another 18 hours before drugs were washed away, and cells were allowed to grow in drug-free medium for 10 days.
To test the functional relevance of the TSA mediated Rad51 foci formation in the VDR knockdown cells, whether TSA altered the sensitivity to gemcitabine was investigated. […] Parental cell sensitivity to gemcitabine was increased by TSA treatments at the concentrations tested (p=0.02).

[2] = tested on: BxPC3 cells; test: Clonogenic survival assay, gemcitabine kill curves; type: cell-based, human
Procedure: Cell culture and chemicals. Panc1, BxPC3, and CFPAC1 cells were purchased from American Type Culture Collection (ATCC) and banked in house until use. Cell lines were cultured in DMEM/10% FBS supplemented with 2 mM glutamine and 1% penicillin, streptomycin, and kanamycin (PSK) and were maintained at 37° C. in 5% CO2. Charcoal stripped (in house cell culture facility) and dialyzed FBS (Life Technologies; 509 26400-036) were used. Gemcitabine was obtained from the in house pharmacy. Rucaparib and trichostatin A were gifts.
as §1

[3] = tested on: BxPC3 cells; test: Western blot of Rad51 and γH2AX in supernatant and chromatin fractions; type: cell-based, human; settings: gemcitabine for 18 hours
Procedure: (§2) Western Blotting. BxPC3, Panc1, and CFPAC1 cells were treated with vehicle or gemcitabine (50 nM) for 18 hrs. Cells were harvested, washed in PBS and lysed in NP40 lysis buffer (1% NP40/PBS/10% glycerol) with protease and phosphatase inhibitors. Protein concentrations were determined with MicroBCA Assay (Pierce Biotechnology; 23224 and 23228) and then SDS sample buffer was added to the lysates. 40 μg of boiled lysates was separated by SDS-PAGE and then transferred onto Immobilon P membrane (Millipore; IPVH00010). Antibodies used for immunoblotting were obtained from: VDR (Epitomics; 3277-1), γH2AX (Upstate Biotechnologies, now Millipore; 05-636), Rad51 (Genetex; GTX70230, gift), p300 (Santa Cruz Biotechnologies; SC-584), and TAO1 kinase (Bethyl Labs; A300-524A).

[4] = tested on: BxPC3 cells; test: Immunofluorescence of DNA damage foci (phospho-γH2AX, Rad51, 53BP1) after gemcitabine; type: cell-based, human; settings: for cells positive for Rad51 foci (>5 foci/nucleus): 18 hrs post gemcitabine
Procedure: For Immunofluorescence, cells were plated onto coverslips 24 hours pre-gemcitabine treatment. At different timepoints post gemcitabine treatment, cells were permeablized, fixed (4% paraformaldehyde) and stained. Antibodies to γH2AX (Millipore; 05-636), Rad51 (a gift), and 53BP1 were used. Alexa Fluor-conjugated (488, 555, and 647 nm) secondary antibodies (Molecular probes; A-11029, A-21428, A-21247) were used at a final concentration of 1 and nuclei counterstained with DAPI. Images were captured using a 40× or 63× high NA objective mounted on a semi-automated inverted microscope (Nikon TEi) with a charge-coupled device camera (Photometrics1394) using Nikon Elements 2.0. Exposure times for antibodies were optimized for control samples and identical exposure times used for the experimental samples. Images were quantitated and analyzed using Nikon Elements 2.0. Confocal images were taken using a Leica TCS-SP8 microscope controlled by LAS software (Leica Microsystems).
It was investigated if these repair pathways were abrogated after VDR knockdown by staining for foci formation by phospho-γH2AX, Rad51, and 53BP1, and measuring intensities after gemcitabine treatment (FIGS. 3, 4, and 5). BxPC3 (high VDR expression) and Panc1 (low VDR expression) cells were treated with gemcitabine (50 nM) for 2, 4, 8, and 18 hours, and fixed and stained for phospho-γH2AX, 53BP1, and Rad51. Foci quantitation included counting of nuclei with >5 foci and a separate measurement of the sum intensities of foci that were averaged for 5 separate immunofluorescence experiments. […] Weak but detectable phospho-γH2AX foci were visible within 4 hours of gemcitabine treatment in BxPC3 cells while it took 18 hours for foci to form in Panc1 cells (FIG. 3, A). Similarly, Rad51 foci were visible after 8 hours of gemcitabine treatment in BxPC3 cells compared to 18 hours in Panc1 cells (FIG. 3, A, FIG. 4, and FIG. 5).

[5] = tested on: VDR; test: Western blot of VDR expression after gemcitabine; type: cell-based, human; settings: gemcitabine 50 nM 18 hrs
Procedure: as §2
Next, the levels of VDR protein were compared in BxPC3, CFPAC1, and Panc1 cells to see if the amount of expression might correlate with gemcitabine sensitivity.

[6] = BxPC3 VDRkd, 18 hours after gemcitabine
[7] = BxPC3 VDRkd, 18 hours of gemcitabine
[8] = Panc1 cells or VDR depleted BXPC3 versus BxPC3, after gemcitabine
[9] = parental BxPC3, 18 hours of gemcitabine

Q: Which IC50 ([1]; BXPC-3, BxPC3 VDRkd cells, with TSA (500 nM), read-out: IC50 of gemcitabine) does the source give for `Nc1ccn([C@@H]2O[C@H](CO)[C@@H](O)C2(F)F)c(=O)n1` [gemcitabine] here?
A: Its IC50 is 50 nM.

Q: And the IC50 ([1]; BXPC-3, BxPC3 VDRkd cells, without TSA, read-out: IC50 of gemcitabine)?
A: The IC50 was 50 nM.

Q: And the IC50 ([1]; BXPC-3, BxPC3 parental cells, gemcitabine alone, read-out: IC50 gemcitabine)?
A: The IC50 was roughly 200 nM.

Q: What about the IC50 ([1]; BXPC-3, BxPC3 parental cells, gemcitabine plus TSA (500 nM), read-out: IC50 gemcitabine) of the same compound?
A: The IC50 was 100 nM.

Q: And the “reduction in gemcitabine IC50 after depletion of VDR” value ([2]; BXPC3 cells)?
A: Its value is roughly 3 fold.

Q: What about the IC50 ([2]; BxPC3 VDRkd cells transfected with WT-VDR, read-out: IC50 gemcitabine) of the same compound?
A: Its IC50 is roughly 260 nM.

Q: What about the IC50 ([2]; Homo sapiens, BXPC-3, BxPC3, VDR siRNA, read-out: mean IC50 gemcitabine) of the same compound?
A: The IC50 was roughly 60 nM.

Q: What about the IC50 ([2]; Homo sapiens, BXPC-3, BxPC3, control shRNA, read-out: IC50 gemcitabine) of the same compound?
A: The IC50 was roughly 80 nM.

Q: And the IC50 ([2]; Homo sapiens, BXPC-3, BxPC3, control siRNA, read-out: mean IC50 gemcitabine)?
A: The IC50 was roughly 200 nM.

Q: And the IC50 ([2]; Homo sapiens, BXPC-3, BxPC3, p300 shRNA, read-out: IC50 gemcitabine)?
A: Its IC50 is roughly 40 nM.

Q: What about the IC50 ([2]; Homo sapiens, BXPC-3, BxPC3 VDRkd cells transfected with WT-VDR, read-out: IC50 gemcitabine) of the same compound?
A: The IC50 was roughly 300 nM.

Q: What about the IC50 ([2]; Homo sapiens, BXPC-3, BxPC3 VDRkd cells, WT-VDR co-transfected with AML1/ETO, read-out: IC50 gemcitabine) of the same compound?
A: Its IC50 is roughly 80 nM.

Q: And the IC50 ([2]; Homo sapiens, BXPC-3, BxPC3 VDRkd cells, WT-VDR co-transfected with S237M mutant, read-out: IC50 gemcitabine)?
A: Its IC50 is roughly 60 nM.

Q: And the IC50 ([2]; Homo sapiens, BXPC-3, BxPC3 VDRkd cells, untransfected, read-out: IC50 gemcitabine)?
A: Its IC50 is roughly 50 nM.

Q: What about the IC50 ([2]; Homo sapiens, BXPC-3, BxPC3 VDRkd cells, vector transfected, read-out: IC50 gemcitabine) of the same compound?
A: Its IC50 is roughly 50 nM.

Q: And the IC50 ([2]; Homo sapiens, BXPC-3, BxPC3 cells (highest VDR levels), read-out: mean IC50 gemcitabine)?
A: The IC50 was roughly 200 nM.

Q: What about the “increase of gemcitabine IC50 over vector controls” value ([2]; wild type VDR transfected into VDR depleted BXPC3 cells) of the same compound?
A: The value was roughly 6 fold.

Q: And the “Rad51 and H2AX in whole cell extracts (supernatants), parental versus BxPC3 VDRkd” value [3]?
A: Its value is “equivalent amounts”.

Q: What about the “Rad51 and phospho-γH2AX in chromatin fractions, VDRkd compared to parental BxPC3” value [3] of the same compound?
A: The value was “very low amounts”.

Q: And the “time until Rad51 foci detected after gemcitabine” value ([4]; BxPC3 VDRkd cells)?
A: The value was 18 h.

Q: And the “time until phospho-γH2AX foci detected after gemcitabine” value ([4]; BxPC3 VDRkd cells)?
A: The value was 8 h.

Q: And the “cells exhibiting Rad51 foci” value ([4]; BxPC3 VDRkd, 4 hrs in gemcitabine (50 nM), absence of TSA)?
A: The value was 11%.

Q: And the “cells with diffuse phospho-γH2AX pattern” value [4, 6]?
A: The value was 82%.

Q: What about the “cells with punctate phospho-γH2AX foci” value [4, 6] of the same compound?
A: Its value is 18%.

Q: And the “cells with clear Rad51 foci” value [4, 7]?
A: The value was 28%.

Q: And the “cells with diffuse 53BP1 pattern” value [4, 7]?
A: Its value is 69%.

Q: What about the “cells with diffuse Rad51 staining” value [4, 7] of the same compound?
A: The value was 72%.

Q: And the “cells with punctate 53BP1 foci” value [4, 7]?
A: Its value is 31%.

Q: What about the “cells positive for Rad51 foci (>5 foci/nucleus)” value ([4]; BxPC3 control cells) of the same compound?
A: The value was roughly 84%.

Q: And the “cells positive for Rad51 foci (>5 foci/nucleus)” value ([4]; BxPC3 transfected with p300 shRNA)?
A: Its value is roughly 22%.

Q: What about the “delay of Rad51 foci formation kinetics” value [4, 8] of the same compound?
A: The value was 4 h.

Q: What about the “delay of phospho-γH2AX foci formation kinetics” value [4, 8] of the same compound?
A: Its value is 6 h.

Q: And the “reduction of Rad51 foci intensity” value [4, 8]?
A: Its value is 1.5 fold.

Q: And the “reduction of phospho-γH2AX foci intensity” value [4, 8]?
A: The value was 2 fold.

Q: What about the “reduction of Rad51 focal intensity” value ([4]; p300 knockdown cells compared to control cells, gemcitabine treated) of the same compound?
A: The value was roughly 35%.

Q: What about the “cells with punctate phospho-γH2AX foci” value ([4]; parental BxPC3, 18 hours after gemcitabine) of the same compound?
A: Its value is 94%.

Q: And the “cells with clear Rad51 foci” value [4, 9]?
A: The value was 92%.

Q: What about the “cells with diffuse 53BP1 pattern” value [4, 9] of the same compound?
A: Its value is 10%.

Q: What about the “cells with diffuse Rad51 staining” value [4, 9] of the same compound?
A: The value was 8%.

Q: And the “cells with punctate 53BP1 foci” value [4, 9]?
A: The value was 90%.

Q: And the “time until Rad51 foci visible after gemcitabine” value ([4]; parental BxPC3, gemcitabine 50 nM)?
A: The value was 8 h.

Q: What about the “cells exhibiting Rad51 foci” value ([4]; parental BxPC3, within 4 hours of gemcitabine treatment) of the same compound?
A: The value was 92%.

Q: What about the “VDR levels after overnight treatment with gemcitabine” value (from here on “VDR levels after overnight treatment”) ([5]; BXPC3 cells) of the same compound?
A: The value was “No noticeable increase”.

Q: What about the “VDR levels after overnight treatment” value ([5]; CFPAC1 cells) of the same compound?
A: The value was “increased”.

Q: What about the “VDR levels after overnight treatment” value ([5]; Panc1 cells) of the same compound?
A: Its value is “increased”.
